Laboratory results published in patent publication US10227323B2, “Glucosylceramide synthase inhibitors for the treatment of diseases” (BIOMARIN PHARMACEUTICAL INC., priority 2013, dated 2019).

These compounds were tested against T1, GCS (Canis lupus familiaris, UniProt A0A8I3MXG6) (assay: Assay 1: GCS Enzymatic Assay (MDCK cell lysate, C6-NBD-Ceramide, LC/MS)). Settings: Table 2; data without asterisk; read-out: IC50 (nM) generated from Assay 1.
T1 sequence (A0A8I3MXG6 1-394): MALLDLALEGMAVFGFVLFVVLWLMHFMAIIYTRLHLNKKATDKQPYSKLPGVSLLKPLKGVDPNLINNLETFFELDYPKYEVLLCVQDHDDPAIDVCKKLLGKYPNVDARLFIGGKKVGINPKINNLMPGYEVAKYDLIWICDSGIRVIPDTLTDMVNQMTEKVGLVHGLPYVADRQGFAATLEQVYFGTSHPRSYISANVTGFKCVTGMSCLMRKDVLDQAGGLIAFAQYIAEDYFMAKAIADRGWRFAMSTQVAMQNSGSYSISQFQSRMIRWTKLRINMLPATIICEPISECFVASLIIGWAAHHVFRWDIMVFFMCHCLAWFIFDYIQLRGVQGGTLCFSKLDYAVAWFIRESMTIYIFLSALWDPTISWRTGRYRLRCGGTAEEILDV
Assay type: biochemical, canine
Procedure, shortened: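 LC/MS/MS measurement of glucosylceramide and NBD-ceramide after a 1 h, 37 °C reaction with 100 μM UDP-glucose and 10 μM C6-NBD-ceramide gave IC50s or percent inhibition.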

Structure (SMILES)	IC50
O=C(N[C@H](CN1CCCC1)[C@H](O)c1ccc(OC2CCCC2)c(Cl)c1)C(=O)c1ccc(-c2ccc(F)cc2)cc1 [Example 309, N-((1R,2R)-1-(3-chloro-4-(cyclopentyloxy)phenyl)-1-hydroxy-3-(pyrrolidin-1-yl)propan-2-yl)-2-(4′-fluoro-[1,1′-biphenyl]-4-yl)-2-oxoacetamide]	< 50 nM
Cc1c2cc(-c3ccc(C(=O)C(=O)N[C@H](CN4CCCC4)[C@H](O)c4ccc(OC5CC5)c(Cl)c4)cc3)ccc2nn1C(C)C [Example 310, N-((1R,2R)-1-(3-chloro-4-cyclopropoxyphenyl)-1-hydroxy-3-(pyrrolidin-1-yl)propan-2-yl)-2-(4-(2-isopropyl-3-methyl-2H-indazol-5-yl)phenyl)-2-oxoacetamide]	< 50 nM
CC(C)n1cc2cc(C(=O)C(=O)N[C@H](CN3CCCC3)[C@H](O)c3ccc(OC4CC4)c(Cl)c3)ccc2n1 [Example 311, N-((1R,2R)-1-(3-chloro-4-cyclopropoxyphenyl)-1-hydroxy-3-(pyrrolidin-1-yl)propan-2-yl)-2-(2-isopropyl-2H-indazol-5-yl)-2-oxoacetamide]	< 50 nM
CC(C)n1cc2ccc(C(=O)C(=O)N[C@H](CN3CCCC3)[C@H](O)c3cc(F)c4c(c3)OCCO4)cc2n1 [Example 312, N-((1R,2R)-1-(8-fluoro-2,3-dihydrobenzo[b][1,4]dioxin-6-yl)-1-hydroxy-3-(pyrrolidin-1-yl)propan-2-yl)-2-(2-isopropyl-2H-indazol-6-yl)-2-oxoacetamide]	< 50 nM
O=C(N[C@H](CN1CCCC1)[C@H](O)c1ccc(OC2CCC2)c(Cl)c1)C(=O)c1ccc(-c2ccc(F)cc2)cc1 [Example 313, N-((1R,2R)-1-(3-chloro-4-cyclobutoxyphenyl)-1-hydroxy-3-(pyrrolidin-1-yl)propan-2-yl)-2-(4′-fluoro-[1,1′-biphenyl]-4-yl)-2-oxoacetamide]	< 50 nM
Cc1nn(C(C)C)c2ccc(-c3ccc(C(=O)C(=O)N[C@H](CN4CCCC4)[C@H](O)c4ccc(OC5CC5)c(Cl)c4)cc3)cc12 [Example 314, N-((1R,2R)-1-(3-chloro-4-cyclopropoxyphenyl)-1-hydroxy-3-(pyrrolidin-1-yl)propan-2-yl)-2-(4-(1-isopropyl-3-methyl-1H-indazol-5-yl)phenyl)-2-oxoacetamide]	< 50 nM
Cc1cc(F)ccc1-c1ccc(C(=O)C(=O)N[C@H](CN2CCCC2)[C@H](O)c2cc(F)c3c(c2)OCCO3)cc1 [Example 315, 2-(4′-fluoro-2′-methyl-[1,1′-biphenyl]-4-yl)-N-((1R,2R)-1-(8-fluoro-2,3-dihydrobenzo[b][1,4]dioxin-6-yl)-1-hydroxy-3-(pyrrolidin-1-yl)propan-2-yl)-2-oxoacetamide]	< 50 nM
CC(C)n1cc2ccc(C(=O)C(=O)N[C@H](CN3CCCC3)[C@H](O)c3ccc(OC4CC4)c(Cl)c3)cc2n1 [Example 316, N-((1R,2R)-1-(3-chloro-4-cyclopropoxyphenyl)-1-hydroxy-3-(pyrrolidin-1-yl)propan-2-yl)-2-(2-isopropyl-2H-indazol-6-yl)-2-oxoacetamide]	< 50 nM
Cc1nn(C(C)C)c2ccc(C(=O)C(=O)N[C@H](CN3CCCC3)[C@H](O)c3ccc(OC4CC4)c(Cl)c3)cc12 [Example 317, N-((1R,2R)-1-(3-chloro-4-cyclopropoxyphenyl)-1-hydroxy-3-(pyrrolidin-1-yl)propan-2-yl)-2-(1-isopropyl-3-methyl-1H-indazol-5-yl)-2-oxoacetamide]	< 50 nM
Cc1nn(C)c2ccc(-c3ccc(C(=O)C(=O)N[C@H](CN4CCCC4)[C@H](O)c4ccc(OC5CC5)c(Cl)c4)cc3)cc12 [Example 318, N-((1R,2R)-1-(3-chloro-4-cyclopropoxyphenyl)-1-hydroxy-3-(pyrrolidin-1-yl)propan-2-yl)-2-(4-(1,3-dimethyl-1H-indazol-5-yl)phenyl)-2-oxoacetamide]	< 50 nM

The remaining lines, values ahead:

IC50	Structure (SMILES)
< 50 nM	O=C(N[C@H](CN1CCCC1)[C@H](O)c1ccc2c(c1)OC=CO2)C(=O)c1ccc(-c2ccc(F)cc2)cc1 [Example 319, N-((1R,2R)-1-(benzo[b][1,4]dioxin-6-yl)-1-hydroxy-3-(pyrrolidin-1-yl)propan-2-yl)-2-(4′-fluoro-[1,1′-biphenyl]-4-yl)-2-oxoacetamide]
< 50 nM	O=C(N[C@H](CN1CCCC1)[C@H](O)c1ccc(SC2CC2)c(Cl)c1)C(=O)c1ccc(-c2ccc(F)cc2)cc1 [Example 320, N-((1R,2R)-1-(3-chloro-4-(cyclopropylthio)phenyl)-1-hydroxy-3-(pyrrolidin-1-yl)propan-2-yl)-2-(4′-fluoro-[1,1′-biphenyl]-4-yl)-2-oxoacetamide]
< 50 nM	CC(C)n1ncc2cc(C(=O)C(=O)N[C@H](CN3CCCC3)[C@H](O)c3ccc(OC4CC4)c(Cl)c3)ccc21 [Example 321, N-((1R,2R)-1-(3-chloro-4-cyclopropoxyphenyl)-1-hydroxy-3-(pyrrolidin-1-yl)propan-2-yl)-2-(1-isopropyl-1H-indazol-5-yl)-2-oxoacetamide]
< 50 nM	Cc1nn(C)c2ccc(-c3ccc(C(=O)C(=O)N[C@H](CN4CCCC4)[C@H](O)c4cc(F)c5c(c4)OCCO5)cc3)cc12 [Example 322, 2-(4-(1,3-dimethyl-1H-indazol-5-yl)phenyl)-N-((1R,2R)-1-(8-fluoro-2,3-dihydrobenzo[b][1,4]dioxin-6-yl)-1-hydroxy-3-(pyrrolidin-1-yl)propan-2-yl)-2-oxoacetamide]
< 50 nM	CC(C)n1ccc2cc(C(=O)C(=O)N[C@H](CN3CCCC3)[C@H](O)c3cc(F)c4c(c3)OCCO4)ccc21 [Example 323, N-((1R,2R)-1-(8-fluoro-2,3-dihydrobenzo[b][1,4]dioxin-6-yl)-1-hydroxy-3-(pyrrolidin-1-yl)propan-2-yl)-2-(1-isopropyl-1H-indo1-5-yl)-2-oxoacetamide]
< 50 nM	CC(C)n1ccc2cc(C(=O)C(=O)N[C@H](CN3CCCC3)[C@H](O)c3ccc(OC4CC4)c(Cl)c3)ccc21 [Example 324, N-((1R,2R)-1-(3-chloro-4-cyclopropoxyphenyl)-1-hydroxy-3-(pyrrolidin-1-yl)propan-2-yl)-2-(1-isopropyl-1H-indo1-5-yl)-2-oxoacetamide]
< 50 nM	O=C(N[C@H](CN1CCCC1)[C@H](O)c1cc(F)c2c(c1)OCCO2)C(=O)c1ccc(N2CCOCC2)cc1 [Example 325, N-((1R,2R)-1-(8-fluoro-2,3-dihydrobenzo[b][1,4]dioxin-6-yl)-1-hydroxy-3-(pyrrolidin-1-yl)propan-2-yl)-2-(4-morpholinophenyl)-2-oxoacetamide]
50 to 5000 nM	O=C(N[C@@H](Cc1ccc(OC2CC2)c(Cl)c1)CN1CCCC1)C(=O)c1ccc(-c2ccc(F)cc2)cc1 [Example 326, (S)-N-(1-(3-chloro-4-cyclopropoxyphenyl)-3-(pyrrolidin-1-yl)propan-2-yl)-2-(4′-fluoro-[1,1′-biphenyl]-4-yl)-2-oxoacetamide]
< 50 nM	O=C(N[C@H](CN1CCC1)[C@H](O)c1ccc(OC2CC2)c(Cl)c1)C(=O)c1ccc(N2CCCC2)cc1 [Example 327, N-((1R,2R)-3-(azetidin-1-yl)-1-(3-chloro-4-cyclopropoxyphenyl)-1-hydroxypropan-2-yl)-2-oxo-2-(4-(pyrrolidin-1-yl)phenyl)acetamide]
< 50 nM	O=C(N[C@H](CN1CCCC1)[C@H](O)c1ccc(OC2CC2)c(Cl)c1)C(F)(F)CCc1ccc2cc(Cl)ccc2c1 [Example 328, N-((1R,2R)-1-(3-chloro-4-cyclopropoxyphenyl)-1-hydroxy-3-(pyrrolidin-1-yl)propan-2-yl)-4-(6-chloronaphthalen-2-yl)-2,2-difluorobutanamide]
< 50 nM	C=COc1ccc([C@@H](O)[C@@H](CN2CCCC2)NC(=O)C(=O)c2ccc(-c3ccc(F)cc3)cc2)cc1Cl [Example 329, N-((1R,2R)-1-(3-chloro-4-(vinyloxy)phenyl)-1-hydroxy-3-(pyrrolidin-1-yl)propan-2-yl)-2-(4′-fluoro-[1,1′-biphenyl]-4-yl)-2-oxoacetamide]
< 50 nM	CC(C)n1cc(-c2ccc(C(=O)C(=O)N[C@H](CN3CCCC3)[C@H](O)c3cc(F)c4c(c3)OCCO4)cc2)cn1 [Example 330, N-((1R,2R)-1-(8-fluoro-2,3-dihydrobenzo[b][1,4]dioxin-6-yl)-1-hydroxy-3-(pyrrolidin-1-yl)propan-2-yl)-2-(4-(1-isopropyl-1H-pyrazol-4-yl)phenyl)-2-oxoacetamide]
< 50 nM	CC(C)n1ccc2ccc(C(=O)C(=O)N[C@H](CN3CCCC3)[C@H](O)c3cc(F)c4c(c3)OCCO4)cc21 [Example 331, N-((1R,2R)-1-(8-fluoro-2,3-dihydrobenzo[b][1,4]dioxin-6-yl)-1-hydroxy-3-(pyrrolidin-1-yl)propan-2-yl)-2-(1-isopropyl-1H-indo1-6-yl)-2-oxoacetamide]
< 50 nM	CC(C)n1ccc2ccc(C(=O)C(=O)N[C@H](CN3CCCC3)[C@H](O)c3ccc(OC4CC4)c(Cl)c3)cc21 [Example 332, N-((1R,2R)-1-(3-chloro-4-cyclopropoxyphenyl)-1-hydroxy-3-(pyrrolidin-1-yl)propan-2-yl)-2-(1-isopropyl-1H-indo1-6-yl)-2-oxoacetamide]
< 50 nM	O=C(N[C@H](CN1CCCC1)[C@H](O)c1ccc(OC2CC2)cc1)C(=O)c1ccc(-c2ccc(F)cc2)cc1 [Example 333, N-((1R,2R)-1-(4-cyclopropoxyphenyl)-1-hydroxy-3-(pyrrolidin-1-yl)propan-2-yl)-2-(4′-fluoro-[1,1′-biphenyl]-4-yl)-2-oxoacetamide]
